Laboratory results taken from patent US6495699B2, “Metalloproteinase inhibitors, pharmaceutical compositions containing them, and their use” (Agouron Pharmaceuticals Inc., priority 1996, dated 2002).

Tests used:
Type in all cases: biochemical
Human matrilysin (Matr) = target: T1, Human matrilysin (Matr) (Homo sapiens, UniProt P09237); assay: Fluorometric MCA-peptide hydrolysis assay, matrilysin (Matr); settings: apparent Ki; 10 μM MCA peptide substrate, 37° C., pH 7.5; read-out: Matr (Ki,app)
T1 construct: the catalytic domain was liberated by treatment with 2 mM APMA at 37° C. for 2 hours; ubiquitin (cleaved yes); made in house; host or cells: E. coli
T1 sequence (P09237 95-267): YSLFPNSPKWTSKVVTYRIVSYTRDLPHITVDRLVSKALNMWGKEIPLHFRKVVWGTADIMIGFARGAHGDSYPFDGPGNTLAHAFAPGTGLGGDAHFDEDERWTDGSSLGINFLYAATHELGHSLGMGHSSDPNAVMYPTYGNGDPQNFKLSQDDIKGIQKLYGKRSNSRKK
Description: Human matrilysin (Matr) was expressed in E. coli as a fusion protein with ubiquitin. After purification of the matrilysin/ubiquitin fusion from inclusion bodies, the catalytic domain was liberated by treatment with 2 mM APMA at 37° C. for 2 hours. Final purification was complete using copper chelate chromatography.
(§1) Assays were performed in assay buffer (50 mM Tricine pH 7.5, 200 mM sodium chloride, 10 mM calcium chloride, 0.5 mM zinc acetate containing 2% dimethyl sulfoxide (DMSO)) once the substrate and inhibitor were diluted into it. Stock solutions of inhibitors were prepared in 100% DMSO. Stock solutions of the substrate were prepared in 100% DMSO at a concentration of 6 mM.
(§2) The assay method was based on the hydrolysis of MCA-Pro-Leu-Gly-Leu-DPA-Ala-Arg-NH2 (American Peptide Co.) at 37° C. (see Knight, C. G. et al., FEBS, 1992, 296, 263-266). The fluorescence changes were monitored with a Perkin-Elmer LS-50B fluorimeter using an excitation wavelength of 328 nm and an emission wavelength of 393 nm. The substrate concentration used in the assays was 10 μM. The inhibitor was diluted into the assays from a solution in 100% DMSO, and controls substituted an equal volume of DMSO so that the final DMSO concentration from inhibitor and substrate dilution in all assays was 2%. […] Proper determination of steady-state rates of substrate cleavage required assay lengths of 60 minutes to allow for complete equilibration of the enzyme-inhibitor complex.
(§3) The Km for the MCA peptide substrate with the matrix metalloproteinases is quite high and exceeds its solubility under assay conditions. Consequently, the apparent Ki (Ki,app) was determined to describe the strength of inhibition. However, in this case, Ki,app would be essentially equal to Ki since [S]<<Km. For the determination of Ki,app, the concentration of the inhibitor was varied at a constant and low concentration of substrate and the steady-state rates of fluorescence change determined. In most cases absorptive quench due to the presence of ligand was not observed. For slow-binding inhibitors, onset of inhibition curves were collected for at least 45 minutes so that equilibrium was established. Steady-state rates of fluorescence change were obtained by fitting a curve to an equation for a single exponential decay containing a linear phase. The fitted value of the linear phase was taken as the steady-state rate. The steady-state rates were fitted to the Michaelis equation describing competitive inhibition by non-linear methods. Data resulting from tight-binding inhibition was analyzed, and Ki,app determined by fitting the data to the tight-binding equation of Morrison (Biochem. Biophys. Acta, vol. 185, pp. 269-286 (1969)) by non-linear methods.

[1] = target: T2, catalytic domain of human stromelysin (Hsln) (Homo sapiens, UniProt P08254); assay: Fluorometric MCA-peptide hydrolysis assay, stromelysin (Hsln); settings: apparent Ki; 10 μM MCA peptide substrate, 37° C., pH 7.5; read-out: Hsln (Ki,app)
T2 construct: The catalytic domain of human stromelysin (Hsln) was obtained by expression and purification of a C-terminally truncated prostromelysin-1; made in house; host or cells: E. coli BL21
Description: The catalytic domain of human stromelysin (Hsln) was obtained by expression and purification of a C-terminally truncated prostromelysin-1 from E. coli host BL21 (see Marcy et al. Biochem., 1991, 30, 6476). The subsequent activation of the mature form (Hsln) was completed with 2 mM APMA for 1 hour at 37° C., followed by separation using a sizing column.
as §1, §2, §3

[2] = target: T3, human progelatinase A (GelA), catalytic and fibronectin-like portion (Homo sapiens, UniProt P08253); assay: Fluorometric MCA-peptide hydrolysis assay, gelatinase A (GelA); settings: apparent Ki, 10 μM MCA peptide substrate, 37° C., pH 7.5; for Ki: read-out: GelA (Ki,app)
T3 construct: The catalytic and fibronectin-like portion of human progelatinase A (GelA) was expressed as a fusion protein with ubiquitin; ubiquitin; made in house; host or cells: E. coli
Description: The catalytic and fibronectin-like portion of human progelatinase A (GelA) was expressed as a fusion protein with ubiquitin in E. Coli. Assays were carried out on autocatalytically activated material.
as §1, §2, §3

[3] = target: T4, human collagenase-3 (Coll3) (Homo sapiens, UniProt P45452); assay: Fluorometric MCA-peptide hydrolysis assay, collagenase-3 (Coll3); settings: apparent Ki; 10 μM MCA peptide substrate, 37° C., pH 7.5; read-out: Coll3 (Ki,app)
T4 construct: the catalytic domain was liberated by treatment with 2 mM APMA at room temperature overnight; ubiquitin (N, cleaved yes); made in house; host or cells: E. coli
Description: The propeptide and catalytic domain of human collagenase-3 (Coll3) was expressed in E. coli as an N-terminal fusion protein with ubiquitin. After purification of the fusion from inclusion bodies, the catalytic domain was liberated by treatment with 2 mM APMA at room temperature overnight. Final purification was completed using copper chelate chromatography.
as §1, §2
as §3, with “In most cases absorptive quench due to the presence of ligand was not observed.” left out

T2 sequence (P08254 100-272 limits assumed): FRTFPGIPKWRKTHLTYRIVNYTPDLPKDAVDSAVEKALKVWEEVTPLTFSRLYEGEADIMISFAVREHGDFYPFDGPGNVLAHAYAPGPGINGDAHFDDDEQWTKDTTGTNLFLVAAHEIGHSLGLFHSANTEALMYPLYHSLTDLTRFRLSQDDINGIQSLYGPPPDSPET
T3 sequence (P08253 110-465 limits assumed): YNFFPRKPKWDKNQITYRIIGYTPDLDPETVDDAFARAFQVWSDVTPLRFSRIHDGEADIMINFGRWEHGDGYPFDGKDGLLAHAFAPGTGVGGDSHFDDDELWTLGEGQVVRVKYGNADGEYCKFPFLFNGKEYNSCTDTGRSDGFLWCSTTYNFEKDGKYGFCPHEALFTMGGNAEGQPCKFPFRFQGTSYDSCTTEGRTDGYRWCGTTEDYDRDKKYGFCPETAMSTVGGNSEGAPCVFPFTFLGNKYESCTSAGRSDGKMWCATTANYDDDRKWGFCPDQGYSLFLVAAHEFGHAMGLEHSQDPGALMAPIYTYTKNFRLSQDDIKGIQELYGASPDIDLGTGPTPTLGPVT

**Q.** How did the Ki (Human matrilysin (Matr)) turn out when `CC(=O)[C@H](CC(C)C)NC(=O)[C@@H](CC(=O)O)n1ccc(-c2ccc(-c3ccccc3)cc2)c1` [Example 2, N-(1(S)-Acetyl-3-methylbutyl)-3(R)-[3-(biphenyl-4-yl)-1H-pyrrol-1-yl)succinamic Acid] was run?
**A.** 400 nM

**Q.** And the Ki [1]?
**A.** 89 nM

**Q.** What about the GelA (Ki,app) [2] of the same compound?
**A.** 6.2 nM

**Q.** And the Ki [3]?
**A.** 123 nM

**Q.** Which results are given for `CNC(=O)[C@@H](CC(=O)O)n1ccc(-c2ccc(-c3ccncc3)cc2)c1` [Example 7(d), N-Methyl-3(R)-[3-[4-(pyridin-4-yl)phenyl]-1H-pyrrol-1-yl]succinamic Acid]?
**A.** Ki [1]: 1580 nM; GelA (Ki,app) [2]: 121 nM; Ki [3]: 284 nM

**Q.** How did the Ki [1] turn out when “3(R)-[3-(4-Cyanophenyl)-1H-pyrrol-1-yl]-N-(2,2-dimethyl-1(S)-(hydroxymethyl)propyl)succinamic Acid Triethylammonium Salt [Example 5(h)]” was run?
**A.** 650 nM

**Q.** What about the Ki [2] of the same compound?
**A.** 17.4 nM

**Q.** What about the Ki [3] of the same compound?
**A.** 43 nM

**Q.** `CC(C)C[C@H](NC(=O)[C@@H](CC(=O)O)n1ccc(-c2ccc(-c3ccncc3)cc2)c1)c1ncc[nH]1.O=CO` [Example 7(c), N-[1(S)-(1H-Imidazol-2-yl)-3-methylbutyl]-3(R)-[3-[4-(pyridin-4-yl)phenyl]-1H-pyrrol-1-yl]succinamic Acid Formate Salt] was tested. Which Ki (Human matrilysin (Matr)) did it give?
**A.** 5330 nM

**Q.** What about the Ki [1] of the same compound?
**A.** 26 nM

**Q.** And the GelA (Ki,app) [2]?
**A.** 0.055 nM

**Q.** And the Ki [3]?
**A.** 1.3 nM

**Q.** With `O=C(O)C[C@H](C(=O)N[C@@H]1CCCC[C@H]1O)n1ccc(-c2ccc(-c3ccccc3)cc2)c1` [Example 1(h), 3(R)-[3-(Biphenyl-4-yl)-1H-pyrrol-1-yl]-N-(2(R)-hydroxycyclohex-1(R)-yl)succinamic Acid] as the compound, how does the Ki [1] read?
**A.** 822 nM

**Q.** What about the GelA (Ki,app) [2] of the same compound?
**A.** 58 nM

**Q.** And the Ki [3]?
**A.** 3000 nM

**Q.** For `CC(C)(C)[C@@H](CO)NC(=O)[C@@H](CC(=O)NO)n1ccc(-c2ccc(-c3ccncc3)cc2)c1` [Example 9, N^1-[2,2-Dimethyl-1(S)-(hydroxymethyl)propyl]-N^4-hydroxy-2(R)-[3-[4-(pyridin-4-yl)phenyl]-1H-pyrrol-1-yl]succinamide], which Ki [1] is on record?
**A.** 0.2 nM

**Q.** And the GelA (Ki,app) [2]?
**A.** 0.011 nM

**Q.** What about the Ki [3] of the same compound?
**A.** 0.018 nM

**Q.** Which Ki [1] does the source give for `CC(C)(C)[C@@H](CO)NC(=O)[C@@H]([C@H](CCCO)C(=O)O)n1ccc(-c2ccc(-c3ccccc3)cc2)c1` [Example 11, 2S-[1R-(3-(Biphenyl-4-yl)-1H-pyrrol-1-yl)-1-(1(S)-hydroxymethyl-2,2-dimethyl-propylcarbamoyl)-methyl]-5-hydroxypentanoic Acid] here?
**A.** 62 nM

**Q.** And the GelA (Ki,app) [2]?
**A.** 60 nM

**Q.** And the Ki [3]?
**A.** > 750 nM

**Q.** `CCCC(C(=O)O)[C@H](C(=O)N[C@H](CO)Cc1ccccc1)n1ccc(-c2ccc(-c3ccc(C#N)cc3)cc2)c1` (mixture of isomers) [Example 10(b), 2(RS)-{1R-[1(S)-Benzyl-2-hydroxyethylcarbamoyl]-[3-(4′-cyano-biphenyl-4-yl)-1H-pyrrol-1-yl]-methyl}-pentanoic Acid] was tested. Which Ki (Human matrilysin (Matr)) did it give?
**A.** 510 nM

**Q.** What about the Ki [1] of the same compound?
**A.** 16 nM

**Q.** What about the GelA (Ki,app) [2] of the same compound?
**A.** 9.6 nM

**Q.** What about the Ki [3] of the same compound?
**A.** 23.5 nM

**Q.** `CNC(=O)[C@@H](NC(=O)[C@@H](CC(=O)O)c1ccn(-c2ccc(-c3ccc(C#N)cc3)cc2)c1)C(C)(C)C` [Example 14(b), 3(S)-[1-(4′-Cyanobiphenyl-4-yl)-1H-pyrrol-3-yl]-N-[2,2-dimethyl-1(S)-(methylcarbamoyl)propyl]succinamic Acid] was tested. Which Ki [1] did it give?
**A.** 1.3 nM

**Q.** And the GelA (Ki,app) [2]?
**A.** 0.012 nM

**Q.** What about the Ki [3] of the same compound?
**A.** 0.028 nM

**Q.** What does the source list for `CNC(=O)[C@@H](NC(=O)[C@@H](CC(=O)O)n1ccc(C(=O)Cc2ccc(C#N)cc2)c1)C(C)(C)C` [Example 1(p), 3(R)-[3-[(4-Cyanophenyl)acetyl]-1H-pyrrol-1-yl]-N-(2,2-dimethyl-1(S)-(methylcarbamoyl)propyl]succinamic Acid]?
**A.** Ki [1]: 55000 nM; GelA (Ki,app) [2]: 1230 nM

**Q.** Which results are given for `O=C(C[C@H](C(=O)N[C@H](CO)Cc1ccccc1)n1ccc(-c2ccc(-c3ccccc3)cc2)c1)NO` [Example 8(a)]?
**A.** Ki (Human matrilysin (Matr)): 36 nM; Ki [1]: 0.69 nM; GelA (Ki,app) [2]: 0.027 nM

**Q.** For `C=CC[C@H](C(=O)O)[C@H](C(=O)N[C@H](CO)C(C)(C)C)n1ccc(-c2ccc(-c3ccccc3)cc2)c1` [Example 12, 2S, 2(1S)-[[3-(Biphenyl-4-yl)-1H-pyrrol-1R-yl]-[2,2-dimethyl-1(S)-(hydroxymethyl)propylcarbamoyl]methyl]pent-4-enoic Acid], which Ki [1] is on record?
**A.** > 500 nM

**Q.** What about the GelA (Ki,app) [2] of the same compound?
**A.** > 500 nM

**Q.** `O=C(O)C(F)(F)F.O=C(O)C[C@H](C(=O)N[C@H](CO)Cc1c[nH]cn1)n1ccc(-c2ccc(-c3ccccc3)cc2)c1` [Example 1(g), 3(R)-[3-(Biphenyl-4-yl)-1H-pyrrol-1-yl]-N-[2-hydroxy-1(S)-[(1H-imidazol-4-yl)methyl]ethyl]succinamic Acid Trifluoroacetate Salt] was tested. Which Ki [1] did it give?
**A.** 58 nM

**Q.** What about the GelA (Ki,app) [2] of the same compound?
**A.** 8.5 nM

**Q.** And the Ki [3]?
**A.** 58.5 nM

**Q.** What does the source list for `CNC(=O)[C@@H](NC(=O)C(CC(=O)O)c1ccc(-c2ccc(-c3ccccc3)cc2)o1)C(C)(C)C` (stereo partly drawn) [Example 15(b), N-[2,2-Dimethyl-1(S)-(methylcarbamoyl)propyl]-3-(2-(biphenyl-4-yl)-furan-5-yl)succinamic Acid]?
**A.** Ki [1]: 122 nM; GelA (Ki,app) [2]: 91 nM; Ki [3]: 1020 nM

**Q.** How did the Ki [1] turn out when `O=C(O)C[C@H](C(=O)N[C@H](CO)Cc1ccccc1)c1ccc(-c2ccc(-c3ccccc3)cc2)o1` [Example 15(a), N-(1(S)-Benzyl-2-hydroxyethyl)-3(S)-(2-(biphenyl-4-yl)furan-5-yl)succinamic Acid] was run?
**A.** 92 nM

**Q.** And the GelA (Ki,app) [2]?
**A.** 72 nM

**Q.** What about the Ki [3] of the same compound?
**A.** 300 nM

**Q.** With “3(R)-[3-(4′-Cyanobiphenyl-4-yl)-1H-pyrrol-1-yl]-N-[2,2-dimethyl-1(S)-(hydroxymethyl)propyl]succinamic Acid Triethylammonium Salt [Example 5(g)]” as the compound, how does the Ki [1] read?
**A.** 57 nM

**Q.** And the Ki [2]?
**A.** 2.2 nM

**Q.** And the Ki [3]?
**A.** 14.5 nM

**Q.** Which results are given for `CON(C)C(=O)[C@H](CC(C)C)NC(=O)[C@@H](CC(=O)O)n1ccc(-c2ccc(-c3ccccc3)cc2)c1` [Example 1(l)]?
**A.** Ki [1]: 317 nM; GelA (Ki,app) [2]: 54 nM; Ki [3]: 227 nM
